ChEMBL document CHEMBL5096162, “A review on ferulic acid and analogs based scaffolds for the management of Alzheimer's disease” (Eur J Med Chem, 2021)

Columns and labels:
[1] = Antioxidant activity assessed as trolox equivalent of ABTS radical cation scavenging activity measured after 6 mins by UV spectrophotometeric analysis; type: functional
Acetylcholinesterase [2] = target: T1, Acetylcholinesterase (Homo sapiens, UniProt P22303); assay: Inhibition of human AchE preincubated for 6 mins followed by substrate addition and measured upto 3 mins using acetylthiocholine iodide as substrate by Ellman's method
Cholinesterase [3] = target: T2, Cholinesterase (Homo sapiens, UniProt P06276); assay: Inhibition of human BuchE preincubated for 6 mins followed by substrate addition and measured upto 3 mins using acetylthiocholine iodide as substrate by Ellman's method
HT-22 = assay: Neuroprotection against iodoacetic acid-induced ATP depletion in mouse HT-22 cells assessed as increase in cell viability at 1 uM incubated for 2 hrs in medium with compound and iodoacetic acid followed by medium change with compound and measured after 24 hrs by MTT assay; type: functional; settings: time 26 hrs
[4] = Antioxidant activity assessed as DPPH radical scavenging activity incubated for 30 mins by UV-Vis spectrophotometric analysis; type: functional
[5] = target: Acetylcholinesterase (Electrophorus electricus) (UniProt O42275); assay: Inhibition of electric eel AChE at 1 uM by Ellman's method
[6] = target: Cholinesterase (Equus caballus) (UniProt P81908); assay: Inhibition of equine BuChE at 1 uM by Ellman's method
[7] = Antioxidant activity assessed as trolox equivalent of ORAC radical scavenging activity by ORAC-FL assay; type: functional
Cholinesterase [8] = target: T2, Cholinesterase; assay: Inhibition of human BuchE preincubated for 30 mins followed by substrate addition using butyrylthiocholine iodide as substrate by Ellman's method
Cholinesterase [9] = target: Cholinesterase (Equus caballus, UniProt P81908); assay: Inhibition of equine serum BuChE preincubated for 5 mins followed by substrate addition and measured after 5 mins using S-butyrylthiocholine iodide as substrate by Ellman's method
Acetylcholinesterase [10] = target: T1, Acetylcholinesterase; assay: Inhibition of human AchE using acetylthiocholine iodide as substrate by Ellman colorimetric assay
Cholinesterase [11] = target: T2, Cholinesterase; assay: Inhibition of human BuchE using butyrylthiocholine iodide as substrate by Ellman colorimetric assay
SH-SY5Y = assay: Neuroprotective activity against amyloid beta-induced cytotoxicity in human SH-SY5Y cells assessed as cell viability at 10 to 80 uM by MTT assay; type: functional; settings: dose 10-80 µM
Beta-secretase 1 = Beta-secretase 1 (Homo sapiens, UniProt P56817); assay: Inhibition of human BACE-1 by FRET-based fluorometric assay
[12] = Antioxidant activity assessed as DPPH radical scavenging activity measured for 30 mins in dark by UV-Vis spectrophotometric analysis; type: functional
[13] = Antioxidant activity of compound assessed as trolox equivalent of AAPH radical scavenging activity preincubated for 15 mins followed by AAPH addition and measured for 120 mins by ORAC-FL assay; type: functional; settings: time 135.0 min
[14] = Antioxidant activity assessed as DPPH radical scavenging activity measured for 45 mins by spectrophotometric analysis; type: functional
[15] = Antioxidant activity assessed as ABTS radical cation scavenging activity measured every minute for 15 mins by spectrophotometeric analysis; type: functional
[16] = Antioxidant activity assessed as GO radical cation scavenging activity measured for 30 mins by spectrophotometeric analysis; type: functional
Acetylcholinesterase [17] = target: Acetylcholinesterase (Electrophorus electricus, UniProt O42275); assay: Inhibition of electric eel AChE preincubated for 15 mins followed by substrate addition using acetylthiocholine iodide as substrate by Ellman's method
[18] = Antioxidant activity assessed as DPPH radical scavenging activity at 1 mM incubated for 30 mins by microplate reader method; type: functional
[19] = target: Amyloid-beta precursor protein (Homo sapiens) (UniProt P05067); assay: Inhibition of amyloid beta (1 to 42) (unknown origin) self aggregation assessed as reduction in fluorescence intensity at 80 uM incubated for 24 hrs by ThT-based fluorimetric assay
[20] = Metal chelating activity assessed as Fe2+ -ferrozoine complex formation incubated for 10 mins followed by ferrozine addition and further incubated for 10 mins by spectrophotometric assay; settings: time 20.0 min

T1 sequence (P22303 whole entry): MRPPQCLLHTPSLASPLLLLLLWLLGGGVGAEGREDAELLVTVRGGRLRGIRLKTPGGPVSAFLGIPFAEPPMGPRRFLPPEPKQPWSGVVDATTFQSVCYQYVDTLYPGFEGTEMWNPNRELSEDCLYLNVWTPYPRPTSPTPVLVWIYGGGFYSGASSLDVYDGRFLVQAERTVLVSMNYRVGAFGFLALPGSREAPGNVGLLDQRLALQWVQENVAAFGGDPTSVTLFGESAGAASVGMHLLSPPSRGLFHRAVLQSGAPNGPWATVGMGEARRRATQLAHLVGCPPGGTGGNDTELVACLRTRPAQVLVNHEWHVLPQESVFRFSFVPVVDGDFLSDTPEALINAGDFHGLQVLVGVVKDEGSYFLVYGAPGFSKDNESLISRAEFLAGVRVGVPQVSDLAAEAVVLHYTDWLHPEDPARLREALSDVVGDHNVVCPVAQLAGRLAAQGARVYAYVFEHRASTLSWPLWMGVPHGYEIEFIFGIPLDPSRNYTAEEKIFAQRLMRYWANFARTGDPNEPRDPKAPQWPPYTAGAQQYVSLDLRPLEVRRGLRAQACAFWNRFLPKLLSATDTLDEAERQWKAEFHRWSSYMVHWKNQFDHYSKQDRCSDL
T2 sequence (P06276 whole entry): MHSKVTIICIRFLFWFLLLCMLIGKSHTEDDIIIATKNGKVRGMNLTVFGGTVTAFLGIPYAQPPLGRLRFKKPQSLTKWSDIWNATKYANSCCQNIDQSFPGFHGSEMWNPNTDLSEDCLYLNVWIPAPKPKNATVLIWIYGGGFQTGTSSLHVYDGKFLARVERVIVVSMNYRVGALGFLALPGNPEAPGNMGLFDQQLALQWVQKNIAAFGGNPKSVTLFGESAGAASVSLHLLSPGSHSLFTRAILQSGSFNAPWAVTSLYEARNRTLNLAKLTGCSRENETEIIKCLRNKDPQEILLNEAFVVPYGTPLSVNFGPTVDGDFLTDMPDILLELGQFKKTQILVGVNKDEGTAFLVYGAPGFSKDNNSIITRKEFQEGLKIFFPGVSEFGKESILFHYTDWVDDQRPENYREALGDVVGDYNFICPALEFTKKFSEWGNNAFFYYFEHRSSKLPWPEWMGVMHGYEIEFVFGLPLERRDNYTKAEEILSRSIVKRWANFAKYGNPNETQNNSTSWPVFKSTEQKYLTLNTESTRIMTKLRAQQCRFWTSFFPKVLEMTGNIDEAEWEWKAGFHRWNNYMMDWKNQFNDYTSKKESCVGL
Beta-secretase 1, sequence (P56817 whole entry): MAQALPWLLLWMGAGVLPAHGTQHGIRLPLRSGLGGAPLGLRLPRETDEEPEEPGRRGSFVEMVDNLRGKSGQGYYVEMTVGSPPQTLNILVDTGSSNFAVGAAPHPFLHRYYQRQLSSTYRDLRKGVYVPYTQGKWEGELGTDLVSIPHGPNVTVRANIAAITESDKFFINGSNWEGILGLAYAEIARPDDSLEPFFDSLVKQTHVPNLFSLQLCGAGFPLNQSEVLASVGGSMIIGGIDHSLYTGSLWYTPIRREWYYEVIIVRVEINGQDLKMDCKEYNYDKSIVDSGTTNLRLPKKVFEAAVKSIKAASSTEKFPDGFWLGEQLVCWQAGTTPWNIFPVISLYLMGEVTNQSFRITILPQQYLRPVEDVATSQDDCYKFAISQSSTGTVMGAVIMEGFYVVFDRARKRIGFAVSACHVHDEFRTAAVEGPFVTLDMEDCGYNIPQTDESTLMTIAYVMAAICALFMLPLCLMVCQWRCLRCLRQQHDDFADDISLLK
Cholinesterase (Equus caballus, UniProt P81908), sequence (P81908 whole entry): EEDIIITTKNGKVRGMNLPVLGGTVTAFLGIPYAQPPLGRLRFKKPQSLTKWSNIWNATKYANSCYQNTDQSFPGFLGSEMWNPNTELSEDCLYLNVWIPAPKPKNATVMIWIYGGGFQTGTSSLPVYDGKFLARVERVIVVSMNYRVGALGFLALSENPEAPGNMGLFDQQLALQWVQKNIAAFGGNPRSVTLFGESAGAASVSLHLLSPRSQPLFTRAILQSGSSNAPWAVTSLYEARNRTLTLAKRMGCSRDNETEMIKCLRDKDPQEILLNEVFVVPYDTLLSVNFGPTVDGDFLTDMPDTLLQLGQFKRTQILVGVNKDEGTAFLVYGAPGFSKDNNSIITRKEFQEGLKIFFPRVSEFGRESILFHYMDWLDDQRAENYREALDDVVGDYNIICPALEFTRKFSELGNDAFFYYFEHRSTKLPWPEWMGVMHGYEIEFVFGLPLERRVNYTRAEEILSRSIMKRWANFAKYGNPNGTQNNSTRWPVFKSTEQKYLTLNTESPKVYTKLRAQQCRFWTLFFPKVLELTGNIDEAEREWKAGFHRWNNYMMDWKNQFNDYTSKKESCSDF
Cholinesterase (Equus caballus), sequence (P81908 whole entry): as above
Acetylcholinesterase (Electrophorus electricus), sequence (O42275 24-633 limits assumed): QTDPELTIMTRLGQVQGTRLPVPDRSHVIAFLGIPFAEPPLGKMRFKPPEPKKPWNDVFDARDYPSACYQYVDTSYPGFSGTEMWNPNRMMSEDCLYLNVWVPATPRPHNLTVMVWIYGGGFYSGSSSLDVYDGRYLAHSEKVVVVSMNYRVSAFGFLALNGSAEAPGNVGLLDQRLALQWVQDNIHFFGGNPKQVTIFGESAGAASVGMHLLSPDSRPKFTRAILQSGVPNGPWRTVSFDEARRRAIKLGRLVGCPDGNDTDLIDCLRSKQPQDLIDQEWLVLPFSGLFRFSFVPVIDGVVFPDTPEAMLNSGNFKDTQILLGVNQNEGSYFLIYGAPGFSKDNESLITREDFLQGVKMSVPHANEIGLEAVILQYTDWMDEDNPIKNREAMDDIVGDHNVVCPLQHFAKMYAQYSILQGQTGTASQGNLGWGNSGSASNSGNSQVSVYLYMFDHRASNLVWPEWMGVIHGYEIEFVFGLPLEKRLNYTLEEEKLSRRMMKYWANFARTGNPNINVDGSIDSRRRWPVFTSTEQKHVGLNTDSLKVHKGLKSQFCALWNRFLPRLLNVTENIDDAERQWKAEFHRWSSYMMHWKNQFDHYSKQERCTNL
Amyloid-beta precursor protein (Homo sapiens), sequence (P05067 whole entry): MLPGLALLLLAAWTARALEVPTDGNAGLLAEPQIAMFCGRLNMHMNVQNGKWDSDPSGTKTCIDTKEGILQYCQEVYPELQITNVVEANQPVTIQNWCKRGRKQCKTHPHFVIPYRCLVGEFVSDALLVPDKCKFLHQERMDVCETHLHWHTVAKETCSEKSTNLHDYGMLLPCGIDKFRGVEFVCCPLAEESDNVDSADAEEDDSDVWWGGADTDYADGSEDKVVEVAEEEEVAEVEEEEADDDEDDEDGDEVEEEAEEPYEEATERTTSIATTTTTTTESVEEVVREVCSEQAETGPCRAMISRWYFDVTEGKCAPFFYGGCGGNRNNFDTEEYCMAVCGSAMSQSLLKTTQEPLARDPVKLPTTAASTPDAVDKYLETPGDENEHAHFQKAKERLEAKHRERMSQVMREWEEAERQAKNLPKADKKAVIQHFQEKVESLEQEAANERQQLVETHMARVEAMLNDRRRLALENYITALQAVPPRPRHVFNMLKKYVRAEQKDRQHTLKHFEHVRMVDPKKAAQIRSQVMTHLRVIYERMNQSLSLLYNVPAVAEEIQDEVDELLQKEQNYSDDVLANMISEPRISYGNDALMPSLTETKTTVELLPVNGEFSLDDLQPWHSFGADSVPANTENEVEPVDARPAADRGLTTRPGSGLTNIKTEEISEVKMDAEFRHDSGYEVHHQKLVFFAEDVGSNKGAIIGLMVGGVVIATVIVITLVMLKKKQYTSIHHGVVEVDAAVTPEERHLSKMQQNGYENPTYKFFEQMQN
Acetylcholinesterase (Electrophorus electricus, UniProt O42275), sequence (O42275 whole entry): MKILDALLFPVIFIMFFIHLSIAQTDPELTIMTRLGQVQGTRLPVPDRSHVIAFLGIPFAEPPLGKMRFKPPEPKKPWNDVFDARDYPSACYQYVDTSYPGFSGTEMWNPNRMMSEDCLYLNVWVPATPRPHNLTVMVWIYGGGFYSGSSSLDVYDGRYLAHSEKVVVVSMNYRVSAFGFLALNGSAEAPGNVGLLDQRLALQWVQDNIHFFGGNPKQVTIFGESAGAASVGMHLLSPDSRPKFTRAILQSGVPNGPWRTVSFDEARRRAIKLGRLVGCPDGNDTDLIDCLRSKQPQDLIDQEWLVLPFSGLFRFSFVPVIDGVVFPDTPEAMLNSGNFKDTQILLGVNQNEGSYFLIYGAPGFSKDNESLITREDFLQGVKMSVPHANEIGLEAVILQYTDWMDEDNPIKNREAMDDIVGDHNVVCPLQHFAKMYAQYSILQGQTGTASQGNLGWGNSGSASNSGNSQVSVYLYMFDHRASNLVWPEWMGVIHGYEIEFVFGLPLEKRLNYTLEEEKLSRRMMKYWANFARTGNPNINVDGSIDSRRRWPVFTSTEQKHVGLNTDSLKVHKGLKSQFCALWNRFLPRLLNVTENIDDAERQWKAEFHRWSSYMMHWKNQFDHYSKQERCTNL

## COc1cc(/C=C/C(=O)OCCCCCN(C)Cc2cccc(OC(=O)N(C)C)c2)ccc1O
[1]
  Activity: 1.26 µM
Acetylcholinesterase [2]
  IC50: 19.7 nM
Cholinesterase [3]
  IC50: 0.59 nM

## O=C1c2c(O)cc(O)cc2O[C@H](c2ccc(O)c(O)c2)[C@H]1O [(+)-TAXIFOLIN]
HT-22
  Activity: 10%

## O=C(/C=C/c1ccccc1)Oc1ccc2c(c1)O[C@H](c1ccc(O)c(O)c1)[C@@H](O)C2=O
HT-22
  Activity: 40%

## COc1ccc(/C=C/C(=O)NCCC2CCN(Cc3ccccc3)CC2)cc1O
[4]
  IC50: 764000 nM

## COc1cc(/C=C/C(=O)N(CCC2CCN(Cc3ccccc3)CC2)CC(=O)Nc2c(C)cccc2Cl)ccc1O
[5]
  inhibition: 24.8%
[6]
  inhibition: 57.3%
[7]
  Activity: 6.9 equiv

## CCCCNC(=O)O[C@@H]1C[C@H]2O[C@@H](OC(=O)/C=C/c3ccc(O)c(OC)c3)C[C@H]2O1
Cholinesterase [8]
  IC50: 430 nM

## CCNC(=O)O[C@@H]1C[C@H]2O[C@@H](OC(=O)CCCCC3CCSS3)C[C@H]2O1 (stereo not given in full)
[7]
  Activity: 0.163 equiv

## O=C(/C=C/c1cc(O)c(O)c(O)c1)NCCCCCC[P+](c1ccccc1)(c1ccccc1)c1ccccc1
Cholinesterase [9]
  IC50: 110 nM

## O=C(CCCCC1CCSS1)O[C@H]1C[C@H]2O[C@H](OC(=O)NCc3ccccc3)C[C@H]2O1 (stereo not given in full)
Cholinesterase [8]
  IC50: 150 nM

## COc1cc(/C=C/c2nnc(-c3ccc(OC(F)(F)F)cc3)o2)ccc1O
Acetylcholinesterase [10]
  IC50: 92 nM
Cholinesterase [11]
  IC50: 210 nM
SH-SY5Y
  Activity: 65.11%
Beta-secretase 1
  IC50: 210 nM

## C=CCc1ccc(OC(=O)/C=C/c2ccc(O)c(O)c2)c(OC)c1
[12]
  IC50: 11200 nM

## COc1cc(/C=C/C(=O)O)ccc1S
[13]
  Activity: 0.34
[14]
  IC50: 47800 nM
[15]
  IC50: 19900 nM
[16]
  IC50: 4250 nM

## COc1cc(/C=C/c2nnc(-c3ccc(C(F)(F)F)cc3)o2)ccc1O
Acetylcholinesterase [10]
  IC50: 68 nM
Cholinesterase [11]
  IC50: 255 nM
SH-SY5Y
  Activity: 70.45%
Beta-secretase 1
  IC50: 255 nM

## O=C(/C=C/CCc1ccc2c(c1)OCO2)NCCCNc1c2c(nc3ccccc13)CCCC2
Acetylcholinesterase [17]
  IC50: 130 nM
[18]
  Activity: 20.8%
[19]
  inhibition: 72.2%

## COCCCCCCCCCCCCCCCCCCOC(=O)/C=C/c1ccc(O)c(OC)c1
[20]
  Activity: 77.9%
